This note sets out measurements from ChEMBL document CHEMBL3856276, “Design, Synthesis, and Biological Evaluation of Novel Tetrahydroprotoberberine Derivatives (THPBs) as Selective α1A-Adrenoceptor Antagonists” (J Med Chem, 2016).

Data set [1] deals with T1, Alpha-1A adrenergic receptor (Homo sapiens) (UniProt P35348).
T1 sequence (whole entry): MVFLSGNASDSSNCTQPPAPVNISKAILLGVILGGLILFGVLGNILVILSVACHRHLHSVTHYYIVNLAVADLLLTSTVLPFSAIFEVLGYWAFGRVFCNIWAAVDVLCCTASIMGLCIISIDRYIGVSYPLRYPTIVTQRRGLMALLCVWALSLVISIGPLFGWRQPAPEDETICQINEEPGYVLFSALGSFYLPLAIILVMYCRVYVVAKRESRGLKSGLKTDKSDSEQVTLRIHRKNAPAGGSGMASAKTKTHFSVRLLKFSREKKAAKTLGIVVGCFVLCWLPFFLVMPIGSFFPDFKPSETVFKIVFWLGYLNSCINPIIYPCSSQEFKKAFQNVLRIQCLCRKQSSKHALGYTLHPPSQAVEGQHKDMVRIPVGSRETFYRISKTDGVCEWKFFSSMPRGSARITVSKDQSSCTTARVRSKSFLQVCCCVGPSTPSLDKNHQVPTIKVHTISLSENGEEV
In words: Antagonist activity at human full-length N-terminal SNAP-tagged alpha1A adrenoceptor expressed in HEK293 cells assessed as inhibition of agonist-induced calcium mobilization at 10 uM preincubated for 10 mins followed by agonist addition by fluo-4 AM dye-based assay relative to control. It is filed as functional, cell-based.

The species named for a further data set is Homo sapiens. Kind of data set: Selectivity ratio of IC50 for human full-length N-terminal SNAP-tagged alpha1B adrenoceptor to IC50 for human full-length N-terminal SNAP-tagged alpha1A adrenoceptor.
Data set [2] deals with T2, Alpha-1A adrenergic receptor (Rattus norvegicus, UniProt P43140).
T2 sequence (P43140 whole entry): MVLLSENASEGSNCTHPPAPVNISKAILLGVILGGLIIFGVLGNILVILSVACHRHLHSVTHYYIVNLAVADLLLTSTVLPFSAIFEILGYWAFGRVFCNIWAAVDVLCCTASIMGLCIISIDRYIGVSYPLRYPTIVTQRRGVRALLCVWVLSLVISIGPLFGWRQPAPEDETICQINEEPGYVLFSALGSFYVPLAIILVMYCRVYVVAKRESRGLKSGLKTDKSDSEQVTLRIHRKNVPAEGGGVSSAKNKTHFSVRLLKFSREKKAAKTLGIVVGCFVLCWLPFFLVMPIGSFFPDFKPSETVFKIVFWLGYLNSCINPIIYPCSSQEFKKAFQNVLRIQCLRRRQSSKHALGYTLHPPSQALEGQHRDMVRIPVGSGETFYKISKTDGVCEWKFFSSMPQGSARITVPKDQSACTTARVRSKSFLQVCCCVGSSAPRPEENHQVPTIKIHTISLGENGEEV
In words: Antagonist activity at alpha1A adrenoceptor in Sprague-Dawley rat urethra assessed as inhibition of norepinephrine-induced smooth muscle contraction after 20 mins.

Data set [3] has as its target T3, Alpha-1B adrenergic receptor (Rattus norvegicus, UniProt P15823).
T3 sequence (P15823 whole entry): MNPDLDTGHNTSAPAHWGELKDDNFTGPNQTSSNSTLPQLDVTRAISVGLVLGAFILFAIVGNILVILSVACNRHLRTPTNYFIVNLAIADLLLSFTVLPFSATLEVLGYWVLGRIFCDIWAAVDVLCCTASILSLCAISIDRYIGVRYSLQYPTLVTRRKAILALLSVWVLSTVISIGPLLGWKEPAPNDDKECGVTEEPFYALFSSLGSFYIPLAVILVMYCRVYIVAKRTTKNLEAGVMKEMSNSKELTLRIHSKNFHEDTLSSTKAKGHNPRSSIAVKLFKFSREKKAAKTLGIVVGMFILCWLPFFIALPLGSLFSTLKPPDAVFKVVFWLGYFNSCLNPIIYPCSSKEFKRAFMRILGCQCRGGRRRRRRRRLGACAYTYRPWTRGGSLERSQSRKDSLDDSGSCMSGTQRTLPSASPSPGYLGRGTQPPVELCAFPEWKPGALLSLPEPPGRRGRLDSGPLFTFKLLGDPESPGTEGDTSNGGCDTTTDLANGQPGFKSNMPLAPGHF
In words: Antagonist activity at alpha1B adrenoceptor in Sprague-Dawley rat aorta assessed as inhibition of norepinephrine-induced smooth muscle contraction after 20 mins.

A short description of data set [4]: Selectivity ratio of IC50 for alpha1B adrenoceptor in Sprague-Dawley rat aorta to IC50 for alpha1A adrenoceptor in Sprague-Dawley rat urethra.
The test system of a further data set is Rattus norvegicus. Kind of data set: Inhibition of micturition frequency in po dosed Sprague-Dawley rat benign prostatic hyperplasia model administered 20 mins followed by distilled watering loading measured for 2 hrs. The settings on record: read-out: MED. It is filed as functional.
Data set [5] concerns Mus musculus. In words: Acute toxicity in Kunming mouse assessed as effect on body weight at 500 mg/kg, po administered as single dose measured over 7 days. The settings on record: in vivo, 168 h. It is filed as organism-based.
Data set [6] concerns Mus musculus. In words: Acute toxicity in Kunming mouse assessed as effect on fur colour at 500 mg/kg, po administered as single dose measured over 7 days. It is filed as organism-based. The settings on record: in vivo, 168 h.
Data set [7] concerns Mus musculus. Kind of data set: Acute toxicity in Kunming mouse assessed as effect on behavior at 500 mg/kg, po administered as single dose measured over 7 days. It is filed as organism-based. The settings on record: in vivo, 168 h.
A short description of data set [8]: Cmax in rat at 10 mg/kg, iv. It is filed as ADME, organism-based. Also noted: dose 10 mg/kg, route intravenous. The settings on record: in vivo.
Data set [9] in a line: AUC (0 to t) in rat at 20 mg/kg, ig via oral gavage. Conditions: in vivo. It is filed as ADME, organism-based.
Data set [10] is described as follows: AUC (0 to t) in rat at 10 mg/kg, iv. It is filed as ADME, organism-based. The settings on record: in vivo.
The nature of data set [11]: AUC (0 to infinity) in rat at 10 mg/kg, iv. Also noted: dose 10 mg/kg, time infinity, route intravenous. It is filed as ADME, organism-based. Conditions: in vivo.
Data set [12] is described as follows: Mean residence time in rat at 10 mg/kg, iv. It is filed as ADME, organism-based. The settings on record: in vivo.
The nature of data set [13]: Half life in rat at 20 mg/kg, ig via oral gavage. It is filed as ADME, organism-based. Conditions: in vivo.
Data set [14] is described as follows: Apparent clearance in rat at 10 mg/kg, iv. It is filed as ADME, organism-based. The settings on record: in vivo, read-out: CL(app) (converted).
The target of data set [15] is T4, Alpha-1B adrenergic receptor (Homo sapiens, UniProt P35368).
T4 sequence (P35368 whole entry): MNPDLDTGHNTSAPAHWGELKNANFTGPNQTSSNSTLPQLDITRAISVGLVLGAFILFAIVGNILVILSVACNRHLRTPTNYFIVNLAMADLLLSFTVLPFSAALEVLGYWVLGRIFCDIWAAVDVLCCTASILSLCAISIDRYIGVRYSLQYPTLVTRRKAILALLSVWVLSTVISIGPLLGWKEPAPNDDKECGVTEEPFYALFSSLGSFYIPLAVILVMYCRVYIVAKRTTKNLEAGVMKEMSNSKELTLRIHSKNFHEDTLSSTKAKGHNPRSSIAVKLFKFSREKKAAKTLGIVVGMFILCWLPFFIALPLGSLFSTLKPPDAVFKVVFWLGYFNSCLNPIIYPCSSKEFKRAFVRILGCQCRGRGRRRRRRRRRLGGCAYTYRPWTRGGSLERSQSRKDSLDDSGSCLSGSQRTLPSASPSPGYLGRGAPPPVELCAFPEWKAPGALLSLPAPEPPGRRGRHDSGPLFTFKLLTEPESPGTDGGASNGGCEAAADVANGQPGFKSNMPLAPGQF
Description: Antagonist activity at human full-length N-terminal SNAP-tagged alpha1B adrenoceptor expressed in HEK293 cells assessed as inhibition of agonist-induced calcium mobilization preincubated for 10 mins followed by agonist addition by fluo-4 AM dye-based assay

Each structure is given as a SMILES string.

For the molecule `COc1ccc2[nH]c3c(c2c1)C[C@H]1c2cc4c(cc2CCN1C3)OCO4`, the inhibition in [1] came out at 100%. Further, the results for the Ratio IC50 (in the data set filed under Homo sapiens; in [4]) were greater than 781 and greater than 2083, respectively. Further, the IC50 in data set [2] is 0.5 nM; in [3], greater than 1000 nM; in [15], greater than 10000 nM. For the same molecule, the minimal effective dose with Rattus norvegicus was 3 mg/kg. In addition, the Activity entry in the data set with Mus musculus [5], in the data set on Mus musculus [6] and in the data set on Mus musculus [7] was “Non-Toxic” throughout. The Cmax in data set [8] was found to be 855 ng/mL. The AUC(0-t) in [9] is 2270 ng·h/mL; in [10] it was 1870 ng·h/mL. In [11], this molecule came in with an AUC(0-inf) of 1880 ng·h/mL. This molecule gave an MRT in data set [12] of 1.79 h. The molecule also showed a half-life in data set [13] of 1.18 h. In addition, in data set [14], the clearance was 96.5 mL/min/kg.
